From ChEMBL document CHEMBL1909046, “DrugMatrix in vitro pharmacology data”

Key:
[1] = biological target: T1, Alpha-1A adrenergic receptor (Rattus norvegicus, UniProt P43140); assay: DRUGMATRIX: Alpha-1A adrenergic receptor radioligand binding (ligand: prazosin); type: cell membranes, Wistar, Submaxillary gland, Membrane; settings: Not Active = under 50% inhibition at 10 µM
T1 sequence (P43140 whole entry): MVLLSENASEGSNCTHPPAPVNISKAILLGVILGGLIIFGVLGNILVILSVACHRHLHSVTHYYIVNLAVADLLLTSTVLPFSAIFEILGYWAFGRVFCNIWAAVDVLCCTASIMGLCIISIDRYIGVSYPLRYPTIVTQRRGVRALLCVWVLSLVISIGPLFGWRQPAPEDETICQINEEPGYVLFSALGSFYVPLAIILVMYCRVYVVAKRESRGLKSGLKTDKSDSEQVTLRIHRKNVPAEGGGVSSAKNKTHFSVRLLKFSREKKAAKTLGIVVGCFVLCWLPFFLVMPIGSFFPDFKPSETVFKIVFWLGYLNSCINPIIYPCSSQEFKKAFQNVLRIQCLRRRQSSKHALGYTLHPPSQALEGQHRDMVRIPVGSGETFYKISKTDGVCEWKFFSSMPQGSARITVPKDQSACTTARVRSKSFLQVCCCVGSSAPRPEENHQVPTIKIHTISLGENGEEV

[2] = DRUGMATRIX: Calcium Channel Type L, Benzothiazepine radioligand binding (ligand: [3H] Diltiazem); type: cell membranes, Rattus norvegicus, Wistar, Brain, Membrane; settings: Not Active = under 50% inhibition at 10 µM
[3] = biological target: Sodium-dependent dopamine transporter (Homo sapiens, UniProt Q01959); assay: DRUGMATRIX: Dopamine Transporter radioligand binding (ligand: [125I] RTI-55); type: cell membranes, CHO-K1, Membrane; settings: cho-k1; Not Active = under 50% inhibition at 10 µM
Chain of Sodium-dependent dopamine transporter (Q01959 whole entry): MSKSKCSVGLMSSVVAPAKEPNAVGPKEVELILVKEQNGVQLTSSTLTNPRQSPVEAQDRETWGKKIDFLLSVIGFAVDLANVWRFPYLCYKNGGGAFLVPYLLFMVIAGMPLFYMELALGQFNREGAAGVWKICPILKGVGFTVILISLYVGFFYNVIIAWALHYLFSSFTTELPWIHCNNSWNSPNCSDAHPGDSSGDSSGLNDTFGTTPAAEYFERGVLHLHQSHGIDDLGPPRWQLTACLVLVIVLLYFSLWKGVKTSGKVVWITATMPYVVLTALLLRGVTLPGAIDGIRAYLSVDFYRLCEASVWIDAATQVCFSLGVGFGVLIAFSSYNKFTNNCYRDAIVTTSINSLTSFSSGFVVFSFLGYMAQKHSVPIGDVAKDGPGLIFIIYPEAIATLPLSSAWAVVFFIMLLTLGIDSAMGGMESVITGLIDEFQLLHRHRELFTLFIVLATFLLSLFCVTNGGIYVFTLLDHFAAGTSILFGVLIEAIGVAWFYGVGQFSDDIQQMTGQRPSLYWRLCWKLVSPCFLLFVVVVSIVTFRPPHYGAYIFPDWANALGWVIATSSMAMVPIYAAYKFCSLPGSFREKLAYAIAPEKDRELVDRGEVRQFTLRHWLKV

[4] = DRUGMATRIX: Phorbol Ester radioligand binding (ligand: [3H] PDBu); type: cell membranes, Mus musculus, ICR, Brain, Membrane; settings: Not Active = under 50% inhibition at 10 µM
[5] = biological target: cGMP-specific 3',5'-cyclic phosphodiesterase (Homo sapiens, UniProt O76074); assay: DRUGMATRIX: Phosphodiesterase PDE5 enzyme inhibition (substrate: [3H]cGMP + cGMP); type: tissue-based, Platelet; settings: platelet; Not Active = under 50% inhibition at 10 µM
[6] = DRUGMATRIX: Potassium Channel [KATP] radioligand binding (ligand: [3H] Glyburide); type: cell membranes, Membrane; settings: hit-t15; Not Active = under 50% inhibition at 10 µM

O=C(O)COC(=O)Cc1ccccc1Nc1c(Cl)cccc1Cl [ACECLOFENAC]
Not Active: IC50 [1] | IC50 [2] | Ki [2] | IC50 [3] | IC50 [4] | Ki [4] | IC50 [5] | IC50 [6] | Ki [6]
